Entries after “also recorded” stand apart in the source; their conditions may differ.
Legend:
tomato suspension cells = format: cell-based
PR-1 [1] = test: PR-1 expression in Arabidopsis leaves (semi-quantitative PCR / qRT-PCR)
[2] = test system: GRAS4, GST, β-1,3-glucanase, AOS2; test: Defense response genes in tomato leaves after root pretreatment (qRT-PCR); format: in vivo, tomato (Solanum lycopersicum); conditions: root treatment 10 nM
B. subtilis = test: Disk-diffusion assay, B. subtilis; conditions: up to 10 mM
M. incognita = test: Arabidopsis root knot nematode infection assay; format: in vivo, Meloidogyne incognita
Heterodera schachtii = test: Arabidopsis cyst nematode infection assay; format: in vivo
PDF1.2 = PDF1.2 expression in Arabidopsis leaves (semi-quantitative PCR / qRT-PCR)
[3] = test system: Pseudomonas syringae pv. tabaci; test: Resistance of tobacco to Pseudomonas syringae pv. tabaci (bacterial growth); conditions: for resistance to P. syringae pv tabaci: 2 dpi
[4] = test system: EBF1, ERS1, ERS2, ERF1, ACO1, SAUR34, DRM2, AUX1, IAA6 and ARF19; test: Ethylene- and auxin-responsive gene markers in Arabidopsis leaves after root pretreatment (qRT-PCR); format: in vivo, Arabidopsis thaliana; conditions: root treatment 1 μM, 24 hpt
PR-1, FRK1, PHI1, WRKY53 = test: Defense gene expression in Arabidopsis roots (qRT-PCR)
Description: FIG. 18C: Eight days old Arabidopsis seedlings were treated by root bathing using the indicated concentrations of ascr #18. Root samples were collected 6 hours after treatment for RNA extraction. Transcript levels of PHI1, FRK1 and WRKY53 were determined by qRT-PCR and normalized to endogenous UFP (AT4G01000) . *P≤0.05; **P≤0.005; ***P≤0.0005, two-tailed 1-test.
Roots of Arabidopsis seedlings were treated with water (CK) or with various ascr #18 concentrations for 48 hours. Roots were then collected and used to extract RNA for qRT-PCR analysis.
For the RNA analyses in roots, Arabidopsis roots were collected from 20-30 seedlings from each treatment and mRNA was isolated using the Dynabeads mRNA DIRECT Kit (Life Technologies). DNA contamination was removed by treatment with DNase I (Life Technologies). First-strand cDNA was synthesized from 50 ng of mRNA using ProtoScript II Reverse Transcriptase (NEB). […] All assays consisted of three technical replicates for each RNA sample. Data was analyzed using the iCycler iQ Real-Time PCR Detection System Software version 3.0a (Bio-Rad). The Arabidopsis UFP gene (AT4G01000) was used as an endogenous reference gene. PCR was started with an activation and DNA denaturation step (95° C. for 3 minutes), then followed by 40 cycles of 95° C. for 20 seconds and 60° C. for 40 seconds.

MPK3 and MPK6 = test: MAPK activation phosphorylation in Arabidopsis leaves (immunoblot); format: in vivo, Arabidopsis thaliana; conditions: leaf infiltration 1 μM; 10 minutes
[5] = test system: Blumeria graminis f. sp. hordei (Bgh); test: Resistance of barley to Blumeria graminis f. sp. hordei (pustule count); conditions: barley cv. Golden Promise; leaves sprayed 0.01 μM to 1 μM 48 hours before inoculation; 7 dpi
Description: Barley leaves were sprayed with the indicated concentrations of ascr #18 48 hours before inoculation with Blumeria graminis f. sp. hordei (Bgh). Photograph of barley leave segments infected with Bgh were taken at 7 days post inoculation (dpi). FIG. 15C: Provides the number of Bgh pustules counted at 7 dpi. […] Leaves of barley plants were sprayed with water or ascr #18 (1 μM). Plants were inoculated with Bgh 48 hours post treatment. […] Data are average±SD (n=3, where n denotes the number of independent samples). (*P≤0.05; **P≤0.005; ***P≤0.0005, two-tailed t-test).
For barley cv. Golden Promise, 7-days old seedlings were pretreated by spraying with different concentrations of ascr #18. Inoculation with Bgh was done 48 hours post treatment using a detached leaflet assay. Briefly 10 leaves from 5 different plants per treatment were cut and transferred to Petri dishes containing 1% water agar. Leaves were then inoculated with Bgh. Water was used as mock control. Pustules were counted 7 dpi.

[6] = test system: FRK1, PHI1, PR-4, AOS, GSTF6, LOX2; test: Defense gene markers in Arabidopsis leaves after root pretreatment (qRT-PCR); format: in vivo, Arabidopsis thaliana; conditions: root treatment 1 μM
PR-1 [7] = test: PR-1 gene expression in barley leaves (qRT-PCR)
Description: Barley leaves were sprayed with the indicated concentrations of ascr #18 48 hours before inoculation with Blumeria graminis f. sp. hordei (Bgh). […] Leaves of barley plants were sprayed with water or ascr #18 (1 μM). Plants were inoculated with Bgh 48 hours post treatment. Leaves were collected at 16 hpi and used to extract RNA for qRT-PCR analysis. Data are average±SD (n=3, where n denotes the number of independent samples). (*P≤0.05; **P≤0.005; ***P≤0.0005, two-tailed t-test).
Leaves of barley plants were sprayed with various concentrations of ascr #18 or water (mock) for 48 hours. 48 hours post treatment plants were inoculated with Bgh. Leaves were collected at 16 hpi and used to extract RNA for qRT-PCR analysis.
For barley analyses, RNA extraction from infected barley leaves was performed with TRIzol (Invitrogen) following the manufacturer's instructions. Freshly extracted mRNA was used for cDNA synthesis using QuantiTect Reverse-Transcription kit (Qiagen). cDNA was stored at −20° C. For qRT-PCR, 50 ng of cDNA was used as template in the Applied Biosystems 7500 FAST real time PCR system. Amplifications were performed in 7.5 μL of SYBER green JumpStart Taq ReadyMix (Sigma-Aldrich) with 0.5 pmol oligonucleotides. […] Ubiquitin was used as an endogenous reference gene.

PR-1 [8] = test: PR-1 protein/transcript induction in tobacco leaves (immunoblot, RT-PCR)
Description: Four-weeks old tobacco plants were syringe-infiltrated with buffer, SA, or a mixture of SA (50 μM or 500 μM) and decreasing concentration of ascr #18 (10, 0.3, and 0.01 μM). PR-1 was assayed 48 hours after treatment by immunoblot using anti-PR-1 antibody.
PR-1 expression was analyzed 48 hp SA treatment.
To determine whether ascr #18 affects levels of the prototypic SA-responsive PR-1 gene/protein, tobacco plants were treated with varying concentrations of ascr #18 in the presence or absence of SA (FIG. 2).

Botrytis cinerea = test: Resistance of tomato to Botrytis cinerea B05.01 (detached leaflet assay); format: in vivo; conditions: tomato cv. M82; root immersion 0.01 μM 48 hours before
[9] = test system: Pseudomonas syringae pv. tomato DC3000 (Pst); test: Resistance of Arabidopsis to Pseudomonas syringae pv. tomato DC3000 (bacterial growth); format: in vivo; conditions: for protection against Pst DC3000: compared with 1 μM
Pst DC3000 = test: Resistance of tomato to Pst DC3000 (bacterial growth); format: in vivo, Pseudomonas syringae pv. tomato
E. coli = test: Disk-diffusion assay, E. coli; conditions: up to 10 mM
Aspergillus fumigatus = test: Disk-diffusion assay, Aspergillus fumigatus; conditions: up to 10 mM
[10] = leaf infiltration 0.01 μM or 0.3 μM, 24 hpt, qRT-PCR
[11] = leaf pretreatment by syringe infiltration, 0.01, 0.3, and 10 μM
[12] = root pretreatment 10 nM, 48 hours
[13] = root treatment of seedlings, various concentrations, 48 hours

CC1O[C@@H](O[C@@H](C)CCCCCCCCC(=O)O)C(O)C[C@H]1O (stereo in doubt) [ascr #18, (10R)-(3′R,5′R-dihydroxy-6′S-methyl-(2H)-tetrahydropyran-2-yloxy)-undecanoic Acid]
media alkalinization (pH of culture medium) (tomato suspension cells): induced media alkalinization in a dose-dependent manner | PR-1 expression (PR-1 [1]; ascr #18 (0.01 or 0.3 μM) alone, test leaves or roots treated, 24 hours): induces PR-1 expression even in the absence of SA; also recorded: altered | SA-mediated PR-1 expression (PR-1 [1]; ascr #18 co-applied with SA (50 μM) to leaves or applied through roots): suppresses SA-mediated PR-1 expression | PR-1 transcripts (PR-1 [1]; [10]): elevated; also recorded: Induction | PR-1 expression in Arabidopsis (PR-1 [1]; [11]): + | β-1,3-glucanase transcript level in leaves ([2]; 24 hpt): enhanced levels | AOS2 transcript level in leaves ([2]; 48 hpt): significantly elevated | GRAS4 transcript level in leaves ([2]; 48 hpt): significantly elevated | GST transcript level in leaves ([2]; 48 hpt): significantly elevated | β-1,3-glucanase transcript level in leaves ([2]; 48 hpt): significantly elevated | growth inhibition (B. subtilis): no growth inhibition | concentration providing best protection against root infection (M. incognita; Arabidopsis, root knot nematodes): 10 nM | infection with root knot nematode M. incognita (M. incognita; [12]): significantly reduced infection | concentration providing best protection against root infection (Heterodera schachtii; Arabidopsis, cyst nematodes): 10 nM | resistance to H. schachtii (females counted) (Heterodera schachtii; media containing 50 nM or 600 nM, 19 dpi): enhances resistance | infection with cyst nematode H. schachtii (Heterodera schachtii; [12]): significantly reduced infection | PDF1.2 expression, systemic (PDF1.2; a subset of leaves treated): induced PDF1.2 expression in untreated, as well as treated, leaves | PDF1.2 expression (PDF1.2; ascr #18 (0.01 or 0.3 μM), test leaves or roots treated, 24 hours): induces expression of the prototypic JA-responsive PDF1.2 gene; also recorded: altered | PDF1.2 transcripts (PDF1.2; [10]): elevated; also recorded: Induction | PDF1.2 expression in Arabidopsis (PDF1.2; [11]): + | resistance to P. syringae pv tabaci, SA added ([3]; SA 50 μM infiltrated 24 hours after ascr #18 0.01 μM pretreatment): no further enhancement of resistance | resistance to virulent P.t. (bacterial growth) ([3]; ascr #18 0.01 μM alone, leaves (infiltration) or roots (immersion) 24 hours before inoculation, 48 hpi): sufficient to enhance resistance; also recorded: enhanced resistance | virulent P.t. growth, both compounds ([3]; ascr #18 and SA provided simultaneously, vs single treatment): no greater reduction | resistance to P. syringae pv tabaci ([3]; leaf syringe infiltration 0.01 μM, inoculation 48 hours after): enhanced resistance | resistance to P. syringae pv tabaci ([3]; root immersion, ascr #18 0.01 μM or 0.03 μM): enhances resistance | resistance to P. syringae pv tabaci ([3]; spray 0.01 μM 48 hours before inoculation): enhances resistance | resistance to P. syringae pv tabaci, combination ([3]; spray ascr #18 0.01 μM combined with SA 50 μM): did not further increase resistance | auxin or ET-regulated defense signaling ([4]; 10 genes): does not strongly affect auxin or ET-regulated defense signaling | SAUR34 expression ([4]; only one of 10 tested genes): enhanced | root expression of FRK1 (PR-1, FRK1, PHI1, WRKY53; 10 or 50 nM, within 6 hours): induced | root expression of PHI1 (PR-1, FRK1, PHI1, WRKY53; 10 or 50 nM, within 6 hours): induced | root expression of WRKY53 (PR-1, FRK1, PHI1, WRKY53; 10 or 50 nM, within 6 hours): induced | FRK1 expression in roots (PR-1, FRK1, PHI1, WRKY53; [13]): induces; also recorded: induction | PR-1 expression in roots (PR-1, FRK1, PHI1, WRKY53; [13]): induces; also recorded: induction | phosphorylation of MPK3 and MPK6 (MPK3 and MPK6): transient increase in the phosphorylation of both MAPKs; also recorded: Activation | resistance to Bgh (number of pustules) [5]: enhances basal resistance; also recorded: increased resistance to Bgh; also recorded: enhanced resistance | FRK1 expression in leaves ([6]; 6 hpt): induced | AOS expression in leaves ([6]; 24 hpt): increased expression | GSTF6 expression in leaves ([6]; 24 hpt): increased expression | LOX2 expression in leaves ([6]; 24 hpt): increased expression | PHI1 expression in leaves ([6]; 24 hpt): induced | PR-4 expression in leaves ([6]; 24 hpt): increased expression | PR-1 gene expression, with Bgh inoculation (PR-1 [7]; 1 μM ascr #18 plus inoculation with Bgh, 16 hpi): further enhanced; also recorded: even higher levels of PR-1 expression | PR-1 gene expression (PR-1 [7]; barley leaves sprayed, 1 μM, 48 hours): induces PR-1 gene expression; also recorded: induced PR-1 transcript accumulation; also recorded: induction of PR-1 gene | PR-1 accumulation in presence of SA (PR-1 [8]; ascr #18 0.01 or 0.3 μM with SA 500 μM or 50 μM, leaf infiltration, vs SA only): enhanced PR-1 accumulation | PR-1 protein accumulation (PR-1 [8]; tobacco leaves, ascr #18 alone 0.01, 0.3, or 10 μM, syringe infiltration, 48 hours): did not induce PR-1 protein accumulation | resistance to B. cinerea (lesion size 3 dpi) (Botrytis cinerea): did not have a significant effect | resistance to Pst, co-treatment ([9]; ascr #18 0.3 μM with SA 50 μM, leaf infiltration): further enhanced resistance; also recorded: strongly enhanced resistance | concentration for best/maximal protection against leaf infection (Pst; bacterial and viral pathogens) ([9]; in vivo): 1 µM | resistance to virulent Pst DC3000 (bacterial growth) ([9]; leaf syringe infiltration 0.3 μM 24 hours prior to inoculation, 3 dpi): enhanced resistance; also recorded: low level of protection | resistance to P. syringae pv tomato ([9]; root immersion 0.3 μM, 1 μM, or 5 μM 24 hours prior to inoculation): enhanced resistance | protection against Pst DC3000 ([9]; root immersion 0.3 μM): less effective | protection against Pst DC3000 (bacterial growth) ([9]; root immersion 1 μM, 24 hours before inoculation, 3 dpi): strong protection; also recorded: reduced growth | protection against Pst DC3000 ([9]; root immersion 5 μM): less effective | growth of Pst DC3000 in tomato leaves (Pst DC3000; higher concentrations than 10 nM): less effective | growth of Pst DC3000 in tomato leaves (Pst DC3000; tomato cv. M82, root treatment 10 nM 48 hours before, 4 dpi): significantly reduced the growth | growth inhibition (E. coli): no growth inhibition | growth inhibition (Aspergillus fumigatus): no growth inhibition

Reference: patent US12382888B2, “Compositions and methods for modulating immunity in plants” (Boyce Thompson Institute for Plant Research, Inc., priority 2013, dated 2025)
